According to patent publication US20260256889A1, “Pharmaceutical formulations comprising a cyclodextrin” (Novo Nordisk A/S, priority 2021, published 2026):

Assay: Optimal pH (chemical and physical stability across the pH range)
Assay type: physicochemical
Text: (§1) The person skilled in the art can easily find the amylin receptor agonist's optimal pH by testing its chemical and physical stability, in an aqueous solution essentially consisting of the amylin receptor agonist, a buffer and water for injection, across the pH range.
as §1, with “GLP-1” for “amylin”, “range. The physical stability of the GLP-1 receptor agonist may be a reflection of its isoelectric point, which may coincide with the pH where poorest physical stability might be expected.” for “range.”

In the case of “N^6.26-{18-[N-(17-carboxyheptadecanoyl)-L-γ-glutamyl]-10-oxo-3,6, 12, 15-tetraoxa-9,18-diazaoctadecanoyl}-[8-(2-amino-2-propanoic acid),34-L-arginine] human glucagon-like peptide 1 (7-37) [Semaglutide]”, the “pH at which optimally stable” value is reported as 7.4.
